Earlier results, collected in patent US20240156829A1, “Stable Antiemetic Emulsions for Parenteral Administration” (Slayback Pharma LLC, priority 2022, published 2024).
Where a name gives a salt, the structure may show the parent alone.

How the values were obtained:
[1] = in vivo
[2] = by light or oxygen or heavy metals

| solubility | half-life [1] [h] | Stability in a liquid medium [2] | Structure (SMILES) |
| --- | --- | --- | --- |
| very poor | – | – | C[C@@H](O[C@H]1OCCN(Cc2n[nH]c(=O)[nH]2)[C@H]1c1ccc(F)cc1)c1cc(C(F)(F)F)cc(C(F)(F)F)c1 [Aprepitant, 5-([(2R, 3S)-2-((R)-1-[3,5-bis (trifluoromethyl)phenyl]ethoxy)-3-(4-fluoro-phenyl)morpholino]methyl)-1H-1,2,4-triazol-3(2H)-one] |
| – | 40 | easily oxidized and degraded | O=C1c2cccc3c2[C@H](CCC3)CN1[C@@H]1CN2CCC1CC2 [Palonosetron hydrochloride, (3aS)-2-[(3S)-1-azabicyclo [2.2.2]octan-3-yl]-3a,4,5,6-tetrahydro-3H-benzo[de] isoquinolin-1-one; hydrochloride] |
